Experimental data from ChEMBL document CHEMBL1201862, “PubChem BioAssay data set” (2004).
Activity calls are given as the source filed them.

Assays:
Cytochrome P450 2C19 = Cytochrome P450 2C19 (Homo sapiens, UniProt P33261); assay: qHTS Assay for Inhibitors and Substrates of Cytochrome P450 2C19. [Related pubchem assays: 410 ]; type: ADME; settings: read-out: Potency
[1] = Luminescence Cell-Based Dose Retest to Confirm Inhibitors of Cancer Stem Cells. [Related pubchem assays (depositor defined):AID2717, AID2721]; type: functional; settings: Homo sapiens
[2] = reduction of Shn3 3'UTR-driven luciferase in osteoblasts – cell-based, Clone20 osteoblasts, firefly luciferase, cherry-picked, dose response (AID 624132); type: functional;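 note: firefly luciferase luminescence from reporter carrying the Shn3 3'UTR in osteoblasts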
Protein RecA = biological target: T1, Protein RecA (Mycobacterium tuberculosis, UniProt P9WHJ3); assay: Fluorescence Cell-Free Homogeneous Dose Retest to Identify Inhibitors of RecA-Intein Splicing Activity. [Related pubchem assays (depositor defined):AID2097, AID2223, AID489010, AID492950]; type: functional
T1 sequence (P9WHJ3 whole entry): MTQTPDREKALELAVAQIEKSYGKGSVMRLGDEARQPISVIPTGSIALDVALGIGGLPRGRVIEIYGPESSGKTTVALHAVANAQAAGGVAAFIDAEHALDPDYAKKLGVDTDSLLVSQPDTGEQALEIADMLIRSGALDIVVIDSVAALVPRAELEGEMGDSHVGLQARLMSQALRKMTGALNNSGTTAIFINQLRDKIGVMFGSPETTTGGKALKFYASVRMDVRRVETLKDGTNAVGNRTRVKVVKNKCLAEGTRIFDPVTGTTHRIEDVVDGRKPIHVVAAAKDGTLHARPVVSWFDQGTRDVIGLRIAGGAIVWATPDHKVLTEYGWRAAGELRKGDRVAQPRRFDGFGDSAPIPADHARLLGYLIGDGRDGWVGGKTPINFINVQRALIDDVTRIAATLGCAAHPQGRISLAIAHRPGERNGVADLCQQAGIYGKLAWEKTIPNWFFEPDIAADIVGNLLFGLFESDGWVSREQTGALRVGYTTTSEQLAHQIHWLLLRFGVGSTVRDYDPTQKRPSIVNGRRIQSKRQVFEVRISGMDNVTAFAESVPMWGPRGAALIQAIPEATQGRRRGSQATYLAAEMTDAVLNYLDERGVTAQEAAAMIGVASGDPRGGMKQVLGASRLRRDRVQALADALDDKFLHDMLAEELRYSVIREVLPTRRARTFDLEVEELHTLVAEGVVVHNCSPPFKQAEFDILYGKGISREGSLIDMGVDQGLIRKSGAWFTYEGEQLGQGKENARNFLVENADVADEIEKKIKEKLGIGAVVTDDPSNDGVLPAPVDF

[3] = viability loss of HPDE-C7K cells – cell-based, fluorescence, HTS, primary screen (AID 431); type: functional; settings: Homo sapiens
[4] = non-specific 3'UTR reporter inhibition in Clone20-Shn3RL – cell-based, Renilla luciferase, cherry-picked, counter-screen for Shn3 inhibitor project, dose response (AID 624133); type: functional
[5] = biological target: T2, Replicative DNA helicase DnaB (Mycobacterium tuberculosis, UniProt P9WMR3); assay: DnaB intein splicing inhibitors, dose response, biochemical, cell-free fluorescence (AID 449749); type: functional
T2 sequence (P9WMR3 whole entry): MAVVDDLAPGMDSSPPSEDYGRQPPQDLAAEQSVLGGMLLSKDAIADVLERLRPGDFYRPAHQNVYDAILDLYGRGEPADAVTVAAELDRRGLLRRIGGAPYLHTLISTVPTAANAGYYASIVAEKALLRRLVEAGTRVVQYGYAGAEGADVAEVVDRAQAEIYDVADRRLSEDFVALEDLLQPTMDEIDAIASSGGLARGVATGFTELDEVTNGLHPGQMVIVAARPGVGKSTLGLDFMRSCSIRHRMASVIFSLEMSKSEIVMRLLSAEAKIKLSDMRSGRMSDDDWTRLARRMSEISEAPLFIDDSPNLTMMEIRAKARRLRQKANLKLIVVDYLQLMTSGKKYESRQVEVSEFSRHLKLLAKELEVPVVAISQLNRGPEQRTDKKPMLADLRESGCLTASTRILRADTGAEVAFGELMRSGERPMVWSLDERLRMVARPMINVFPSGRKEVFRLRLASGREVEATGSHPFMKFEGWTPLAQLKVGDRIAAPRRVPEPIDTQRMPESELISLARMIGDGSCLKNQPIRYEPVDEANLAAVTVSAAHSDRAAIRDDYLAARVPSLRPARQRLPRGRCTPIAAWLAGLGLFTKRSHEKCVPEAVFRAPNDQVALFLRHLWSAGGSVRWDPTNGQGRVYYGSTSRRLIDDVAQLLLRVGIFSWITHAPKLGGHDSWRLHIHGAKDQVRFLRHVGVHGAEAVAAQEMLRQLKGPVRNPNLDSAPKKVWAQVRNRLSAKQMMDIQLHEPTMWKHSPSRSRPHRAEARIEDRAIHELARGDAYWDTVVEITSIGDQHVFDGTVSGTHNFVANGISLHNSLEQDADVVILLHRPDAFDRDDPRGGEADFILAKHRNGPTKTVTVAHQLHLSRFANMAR

[6] = loss of viability in HepG2 cells – cell-based, CellTiter-Glo, cherry-picked, cytotoxicity control for Shn3 inhibitor project, dose response (AID 624134); type: functional
[7] = HPDE-C7 pancreatic duct cell viability loss – fluorescence, HTS (AID 430); type: functional, cell-based; settings: Homo sapiens
[8] = viability of HCT116 lacking mutant beta-catenin – cell-based, human colon tumor, dose response (AID 1045); type: functional;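 note: HCT116 colon tumor cells with beta catenin knocked out; cells exposed to compound for 60 hours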
[9] = biological target: T3, Mannose-6-phosphate isomerase (Homo sapiens, UniProt P34949); assay: MPI inhibition at elevated mannose 6-phosphate – biochemical, fluorescence intensity, high mannose 6-phosphate, primary screen (AID 1220)
T3 sequence (P34949 whole entry): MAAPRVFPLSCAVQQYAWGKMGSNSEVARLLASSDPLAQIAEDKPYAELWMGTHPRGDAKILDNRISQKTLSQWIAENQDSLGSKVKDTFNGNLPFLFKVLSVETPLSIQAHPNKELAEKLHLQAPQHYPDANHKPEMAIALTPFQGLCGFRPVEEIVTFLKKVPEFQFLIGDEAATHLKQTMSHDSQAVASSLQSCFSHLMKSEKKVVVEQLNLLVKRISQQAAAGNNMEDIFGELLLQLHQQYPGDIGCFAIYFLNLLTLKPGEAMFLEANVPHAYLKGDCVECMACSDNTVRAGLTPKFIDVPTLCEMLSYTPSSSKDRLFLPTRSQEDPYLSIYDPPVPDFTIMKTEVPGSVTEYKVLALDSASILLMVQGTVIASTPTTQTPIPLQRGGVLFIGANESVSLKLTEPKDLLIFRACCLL

[10] = viability of PTEN-deleted HCT116 cells – cell-based, HCT116 PTEN knockout, dose response (AID 1047); type: functional;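 note: HCT116 colon tumor cells with PTEN knocked out; cells exposed to compound for 60 hours before readout; potency for loss of cell viability measured by luminescence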
Cytochrome P450 2C9 = Cytochrome P450 2C9 (Homo sapiens, UniProt P11712); settings: Potency
Estrogen receptor beta = Estrogen receptor beta (Homo sapiens, UniProt Q92731); assay: blockers of SRC-3 recruitment to ERβ – biochemical, ELISA, streptavidin-HRP readout, orthogonal assay, confirmation (AID 1060)
Chain of Estrogen receptor beta (Q92731 whole entry): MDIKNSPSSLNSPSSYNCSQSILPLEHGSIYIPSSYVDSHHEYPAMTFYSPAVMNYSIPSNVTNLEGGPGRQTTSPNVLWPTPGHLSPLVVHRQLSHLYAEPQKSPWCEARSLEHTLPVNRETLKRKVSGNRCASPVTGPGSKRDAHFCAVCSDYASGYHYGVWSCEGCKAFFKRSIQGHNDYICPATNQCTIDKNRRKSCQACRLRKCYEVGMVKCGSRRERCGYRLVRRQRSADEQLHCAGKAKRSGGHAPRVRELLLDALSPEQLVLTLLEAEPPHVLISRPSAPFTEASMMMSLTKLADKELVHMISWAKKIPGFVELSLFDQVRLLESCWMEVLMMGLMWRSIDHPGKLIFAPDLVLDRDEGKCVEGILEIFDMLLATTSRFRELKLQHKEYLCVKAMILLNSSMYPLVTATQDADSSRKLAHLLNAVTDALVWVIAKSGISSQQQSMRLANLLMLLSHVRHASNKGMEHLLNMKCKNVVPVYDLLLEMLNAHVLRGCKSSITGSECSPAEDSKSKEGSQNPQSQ

Chain of Cytochrome P450 2C19 (P33261 whole entry): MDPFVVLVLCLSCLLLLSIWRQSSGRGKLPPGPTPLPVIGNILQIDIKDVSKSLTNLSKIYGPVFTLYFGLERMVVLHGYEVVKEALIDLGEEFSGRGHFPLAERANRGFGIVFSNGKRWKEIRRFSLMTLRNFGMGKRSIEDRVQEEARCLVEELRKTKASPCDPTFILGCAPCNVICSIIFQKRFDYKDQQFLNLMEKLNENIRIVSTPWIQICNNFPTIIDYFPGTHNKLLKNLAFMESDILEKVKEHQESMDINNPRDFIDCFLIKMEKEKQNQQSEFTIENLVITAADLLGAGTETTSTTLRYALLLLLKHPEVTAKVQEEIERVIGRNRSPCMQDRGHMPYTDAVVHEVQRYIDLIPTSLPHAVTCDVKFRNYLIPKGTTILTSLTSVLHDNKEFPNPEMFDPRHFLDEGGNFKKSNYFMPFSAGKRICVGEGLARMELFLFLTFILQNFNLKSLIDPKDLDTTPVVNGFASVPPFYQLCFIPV
Chain of Cytochrome P450 2C9 (P11712 whole entry): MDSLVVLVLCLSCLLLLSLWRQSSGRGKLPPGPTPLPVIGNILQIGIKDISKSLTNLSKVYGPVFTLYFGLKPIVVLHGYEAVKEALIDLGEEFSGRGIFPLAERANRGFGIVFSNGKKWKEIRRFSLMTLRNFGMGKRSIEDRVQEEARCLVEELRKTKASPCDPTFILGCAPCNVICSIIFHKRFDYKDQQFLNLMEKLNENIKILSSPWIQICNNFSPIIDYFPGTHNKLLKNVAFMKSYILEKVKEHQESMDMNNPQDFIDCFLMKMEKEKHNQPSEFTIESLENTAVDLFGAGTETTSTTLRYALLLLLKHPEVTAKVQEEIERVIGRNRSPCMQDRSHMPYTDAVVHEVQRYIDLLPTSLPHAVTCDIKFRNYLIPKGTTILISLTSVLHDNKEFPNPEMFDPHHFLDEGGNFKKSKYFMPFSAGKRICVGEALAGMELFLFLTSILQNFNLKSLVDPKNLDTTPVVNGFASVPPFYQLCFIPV

Q: Which AC50 (Cytochrome P450 2C19) does the source give for `CC(=O)OCC1OC(c2cc(C)cc(C)c2)C=CC1OC(C)=O` (stereo not drawn) here?
A: 2.51 µM (inconclusive)

Q: Which AC50 (Cytochrome P450 2C19) does the source give for `COC(=O)C1C(c2ccccc2)C2C(=O)c3c(OC)cc(OC)cc3O[C@@]12c1ccc(OC)cc1` (stereo partly drawn) here?
A: 0.001 µM (inconclusive)

Q: With `CC(C)C[C@H](N)c1nnc(S(=O)(=O)Cc2ccc(F)cc2)o1` as the compound, how does the AC50 [1] read?
A: 4.78 µM (active)

Q: What about the AC50 [2] of the same compound?
A: 9.02 µM (active)

Q: What about the EC50 (Protein RecA) of the same compound?
A: 25.7 µM (active)

Q: What about the EC50 [3] of the same compound?
A: 7.91 µM (active)

Q: What about the AC50 [4] of the same compound?
A: 22.1 µM (active)

Q: And the AC50 [5]?
A: 1.4 µM (active)

Q: And the AC50 [6]?
A: 27.4 µM (active)

Q: And the EC50 [7]?
A: 8.98 µM (active)

Q: With `COc1ccc(C2NC(=O)NC3=C2CCc2ccccc23)cc1` (stereo not drawn) as the compound, how does the EC50 [8] read?
A: 9.83 µM (active)

Q: And the IC50 [9]?
A: 46.8 µM (active)

Q: What about the EC50 (Protein RecA) of the same compound?
A: 4.7 µM (active)

Q: What about the EC50 [10] of the same compound?
A: 8.31 µM (active)

Q: What about the AC50 [5] of the same compound?
A: > 120 µM (inactive)

Q: Which results are given for `CCCOC(=O)c1ccc(Oc2c(C)n[nH]c2-c2ccc(O)cc2O)cc1`?
A: EC50 [3]: 13.7 µM (active); EC50 [7]: 10.3 µM (active)

Q: What does the source list for `CC1(C)Cc2c(C#N)c(NCc3ccco3)nc(-c3ccco3)c2CO1`?
A: EC50 [3]: > 20 µM (not active); EC50 [7]: 10.1 µM (active)

Q: Which AC50 (Cytochrome P450 2C9) does the source give for `NCCC[C@@H](CC(=O)N[C@@H]1CCNC[C@H]1C(=O)N[C@H](CC(=O)N[C@@H](CCC(=O)O)CC(=O)O)Cc1ccccc1)NC(=O)C[C@H](CO)NC(=O)[C@@H]1CNCC[C@H]1N` here?
A: 15.8 µM (inconclusive)

Q: What about the AC50 (Cytochrome P450 2C19) of the same compound?
A: 15.8 µM (inconclusive)

Q: Which AC50 (Cytochrome P450 2C9) does the source give for `NCCC[C@@H](CC(=O)N[C@@H]1CCCC[C@H]1C(=O)N[C@H](CC(=O)N[C@@H](CCC(=O)O)CC(=O)O)Cc1ccccc1)NC(=O)C[C@H](CO)NC(=O)[C@@H]1CNCC[C@H]1N` here?
A: 39.8 µM (inconclusive)

Q: For `O=C(NCC1CCCO1)c1cc(-c2ccco2)nc2ccccc12` (stereo not drawn), which IC50 (Estrogen receptor beta) is on record?
A: 26.4 µM (not active)
